Read-outs that look alike come from different tables or passages of the source.
Columns and labels:
hLMVEC = assay: Growth factor-induced hLMVEC proliferation; type: cell-based, human; conditions: for IC50: Homo sapiens
Procedure: hLMVEC were seeded in white cell culture-treated flat and clear bottom multi-well plates and incubated at 37 °C overnight, before compounds were added. After incubation for 72 h at 37 °C, plates were equilibrated to ambient temperature for 1 h, and CellTiterGlo reagent (Promega) was added. After approximately 1h, luminescence was measured using a luminometer. Curves were fitted via sigmoidal dose response curves, and IC50 values were determined.

CT26 tumors = assay: CT26 ectopic tumor mouse model; type: in vivo, mice
Procedure: BALB/c mice were anesthetized with ketamine (100 mg/kg) combined with xylazine (10 mg/kg) via intraperitoneal injection. A total of 5 × 10^4 CT26 tumor cells were suspended in 200 μL of Matrigel matrix, and then inoculated in the flank of legs. After implantation, mice were randomly separated into two groups. One group received EVT801 by oral gavage and anti-PD-1 by intraperitoneal injection in a volume of 10 mL/kg, whereas the mice in the second group served as control, and were injected with IgG isotype. PD-1 was injected at day 11, day 14, and day 18 after CT26 inoculation. EVT801 was administrated daily by oral route at 30 mg/kg from day 11 until day 21. Tumor volume was measured on days 11, 13, 15, 18, 19 and 21 following tumor cell injection. The selected groups received vehicle or EVT801 orally in a volume of 10 mL/kg. At day 21, 60 mg/kg hypoxyprobe was injected 30 minutes before sacrifice of mice. The tumors were embedded in paraffin for histology studies.

[1] = test system: NCI-H1703 tumor xenografts; assay: NCI-H1703 subcutaneous xenograft tumor mouse model; type: in vivo, mice; conditions: 30 mg/kg twice per day
Procedure: A total number of 40 homozygous NOD.CB17 Prkdc^scid/NCrHsd mice were used for the xenograft tumor model. On the day of implantation, NCI-H1703 cells were harvested and suspended at a concentration of 1 × 10^8 cells per mL in an equal mix of Cultrex:RPMI without supplements. A volume of 100 μL was injected into the right hind flank of each animal. Tumor volumes were monitored until mean tumor volume reached 150 mm^3. Then, mice were stratified into four treatment groups of each 10 mice and orally dosed twice per day with either EVT801 30 mg/kg and EVT801 vehicle [Soluplus (BASF)/water/hydroxypropylcellulose SL (Nisso America)], or 30 mk/kg pazopanib and pazopanib vehicle (0.5% Hydroxypropyl methylcellulose trimellitate (HPMCT) + 0.1% Tween-80). A period of 8 hours was observed between the first and second daily dose.

ERK phosphorylation = assay: Immunoblot of phosphorylated ERK in NCI-H1703 cells; type: cell-based, human; conditions: 1 μmol/L
Procedure: For immunoblotting, 2 x 10^5 cells were scraped and lysed with RIPA lysis buffer (Sigma, R0278), supplemented with protease inhibitor cocktail (Ozyme, 5872S). After separation by SDS-PAGE, proteins were transferred to PVDF membranes. Membranes were blocked with 5 % milk in TBS-T for saturation step and incubated with phosphorylated ERK (CellSignaling, 4377, 1:1000) or GAPDH (CellSignaling, 5174, 1:1000) antibodies overnight, followed by an anti-mouse IgG, secondary antibody HRP linked (CellSignaling, 7076, 1:2000) in antibodies buffer (TBS-Tween 0.05 %, 0.1 % BSA) for 2 h. Membranes were washed 3 x 10 min in TBS before adding chemiluminescent substrate (Supersignal West Pico Plus, 54580, ThermoFisher) and imaged by the Pxi6 station (Ozyme).

VEGFR-1 = target: T1, VEGFR-1 (Homo sapiens, UniProt P17948); assay: Cellular autophosphorylation assay, HEK293 cells transiently expressing VEGFR-1; type: cell-based
T1 construct: expressed in transfected cells; host or cells: HEK293T
Procedure: (§1) Transfection of HEK293T cells and Ba/F3 cells with VEGFR-1-Flag, VEGFR-2-Flag or VEGFR-3-Flag expression constructs was performed using Fugene-6 (Roche) as per manufacturer’s protocol. Briefly, Fugene-6 was pre-incubated with Opti-Mem (Gibco) before adding DNA. After 24 h, media was replaced with serum-free culture media containing 0.2 % BSA. On the next day, cells were incubated for 1 h in 1 mM orthovanadate, harvested, dissociated and distributed at 4 x 10^5 cells in 5 mL for HEK-VEGFR-1 and HEK-VEGFR-3, and 5 x 10^4 cells per 5 mL for HEK VEGFR-2 in the presence of EVT801 or SAR401849. After 30 min, the reaction was stopped by the addition of cold PBS supplemented with 1 mM orthovanadate. Cells were then lysed with 150 μl of RIPA buffer for 15 min at 4°C, then centrifuged for 10 min at 10,000 g. Supernatants (75 μl) were distributed in duplicate on 96 well plates that were precoated with the anti-flag, and left for 1 h at room temperature. After 3 washes, the anti-phosphotyrosine conjugated to the HRP was added and incubated for 1 h at room temperature. Wells were then washed 3 times with TBS buffer containing 0.5 % Tween-20 and 2 mM MgCl2. The reaction was stopped with 50 μL of 2 N H2SO4, and the signal was read with Envision at the wavelengths of 485 nm and 530 nm.

VEGFR-2 [2] = target: T2, VEGFR-2 (Homo sapiens, UniProt P35968); assay: Cellular autophosphorylation assay, HEK293 cells transiently expressing VEGFR-2; type: cell-based; design: expressed in transfected cells; host or cells: HEK293T; conditions: read-out: IC50 in cellular assays, VEGFR-2 autophosphorylation
Procedure: as §1
Target sequence in this assay (P35968 20-1356): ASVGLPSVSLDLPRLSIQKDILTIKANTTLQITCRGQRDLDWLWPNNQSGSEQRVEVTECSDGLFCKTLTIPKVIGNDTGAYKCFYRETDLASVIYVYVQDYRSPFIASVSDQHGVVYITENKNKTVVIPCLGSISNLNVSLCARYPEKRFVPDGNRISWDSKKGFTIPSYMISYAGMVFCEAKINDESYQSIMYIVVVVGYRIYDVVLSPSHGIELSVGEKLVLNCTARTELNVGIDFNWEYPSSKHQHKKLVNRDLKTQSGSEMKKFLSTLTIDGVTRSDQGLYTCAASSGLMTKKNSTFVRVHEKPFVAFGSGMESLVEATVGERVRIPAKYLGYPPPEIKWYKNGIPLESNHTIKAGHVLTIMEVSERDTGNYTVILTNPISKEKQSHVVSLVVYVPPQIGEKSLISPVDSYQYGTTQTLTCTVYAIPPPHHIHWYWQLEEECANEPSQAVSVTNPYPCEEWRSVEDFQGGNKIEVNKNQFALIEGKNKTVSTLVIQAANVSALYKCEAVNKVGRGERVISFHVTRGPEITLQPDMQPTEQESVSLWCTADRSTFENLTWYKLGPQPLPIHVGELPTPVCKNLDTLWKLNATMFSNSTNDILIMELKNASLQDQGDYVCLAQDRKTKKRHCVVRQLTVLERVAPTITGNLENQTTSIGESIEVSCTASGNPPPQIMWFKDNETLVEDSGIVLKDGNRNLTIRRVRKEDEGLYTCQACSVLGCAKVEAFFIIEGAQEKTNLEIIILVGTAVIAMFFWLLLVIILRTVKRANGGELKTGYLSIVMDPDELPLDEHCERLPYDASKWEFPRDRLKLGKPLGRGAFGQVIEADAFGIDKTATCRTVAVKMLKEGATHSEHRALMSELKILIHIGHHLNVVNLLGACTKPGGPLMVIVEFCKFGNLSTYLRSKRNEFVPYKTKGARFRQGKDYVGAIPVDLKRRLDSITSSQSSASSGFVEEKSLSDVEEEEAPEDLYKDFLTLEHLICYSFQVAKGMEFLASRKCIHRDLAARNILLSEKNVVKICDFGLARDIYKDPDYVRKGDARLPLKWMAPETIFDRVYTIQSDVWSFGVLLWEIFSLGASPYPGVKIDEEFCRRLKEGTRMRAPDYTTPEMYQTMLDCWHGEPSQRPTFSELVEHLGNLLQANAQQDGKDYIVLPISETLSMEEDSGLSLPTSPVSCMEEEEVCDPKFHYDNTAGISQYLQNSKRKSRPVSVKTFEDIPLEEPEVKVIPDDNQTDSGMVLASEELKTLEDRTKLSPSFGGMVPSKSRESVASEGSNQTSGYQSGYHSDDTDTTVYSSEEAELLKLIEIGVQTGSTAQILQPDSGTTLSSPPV

VEGFR-2 [3] = target: T2, VEGFR-2; assay: Viability of Ba/F3 cells dependent on VEGFR-2; type: cell-based; design: fusion proteins consisting of constructs for IL-3 independent survival and either VEGFR-2 or VEGFR-3 kinase domains; expressed in transfected cells; host or cells: Ba/F3 (stably transduced)
Procedure: Ba/F3 cells were transduced and selected to stably express fusion proteins consisting of constructs for IL-3 independent survival and either VEGFR-2 or VEGFR-3 kinase domains or without the kinase domain. Proliferation and survival of cell lines was dependent on expression of the transcript. Cells in logarithmic-phase growth were harvested and 5 x 10^3 cells were distributed into each well of a 384-well plate in 50 µL of medium. Then, 50 nL of EVT801, SAR401849 or their vehicle solvent were added to appropriate wells. After 48 h, viability was determined by addition of 10 µL CellTiterGlo reagent (Promega). Luminescence was determined as relative light units (RLU) in counts per second.
Target sequence in this assay (P35968 834-1162 limits assumed, species assumed): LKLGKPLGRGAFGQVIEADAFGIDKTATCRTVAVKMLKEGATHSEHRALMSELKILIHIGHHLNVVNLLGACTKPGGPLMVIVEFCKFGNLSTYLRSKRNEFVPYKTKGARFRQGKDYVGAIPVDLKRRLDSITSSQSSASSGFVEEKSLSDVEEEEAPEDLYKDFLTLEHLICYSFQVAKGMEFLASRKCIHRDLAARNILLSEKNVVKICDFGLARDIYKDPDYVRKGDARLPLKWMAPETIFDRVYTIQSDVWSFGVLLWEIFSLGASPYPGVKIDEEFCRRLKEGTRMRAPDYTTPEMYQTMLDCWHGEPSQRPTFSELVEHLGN

T1 sequence (P17948 27-1338): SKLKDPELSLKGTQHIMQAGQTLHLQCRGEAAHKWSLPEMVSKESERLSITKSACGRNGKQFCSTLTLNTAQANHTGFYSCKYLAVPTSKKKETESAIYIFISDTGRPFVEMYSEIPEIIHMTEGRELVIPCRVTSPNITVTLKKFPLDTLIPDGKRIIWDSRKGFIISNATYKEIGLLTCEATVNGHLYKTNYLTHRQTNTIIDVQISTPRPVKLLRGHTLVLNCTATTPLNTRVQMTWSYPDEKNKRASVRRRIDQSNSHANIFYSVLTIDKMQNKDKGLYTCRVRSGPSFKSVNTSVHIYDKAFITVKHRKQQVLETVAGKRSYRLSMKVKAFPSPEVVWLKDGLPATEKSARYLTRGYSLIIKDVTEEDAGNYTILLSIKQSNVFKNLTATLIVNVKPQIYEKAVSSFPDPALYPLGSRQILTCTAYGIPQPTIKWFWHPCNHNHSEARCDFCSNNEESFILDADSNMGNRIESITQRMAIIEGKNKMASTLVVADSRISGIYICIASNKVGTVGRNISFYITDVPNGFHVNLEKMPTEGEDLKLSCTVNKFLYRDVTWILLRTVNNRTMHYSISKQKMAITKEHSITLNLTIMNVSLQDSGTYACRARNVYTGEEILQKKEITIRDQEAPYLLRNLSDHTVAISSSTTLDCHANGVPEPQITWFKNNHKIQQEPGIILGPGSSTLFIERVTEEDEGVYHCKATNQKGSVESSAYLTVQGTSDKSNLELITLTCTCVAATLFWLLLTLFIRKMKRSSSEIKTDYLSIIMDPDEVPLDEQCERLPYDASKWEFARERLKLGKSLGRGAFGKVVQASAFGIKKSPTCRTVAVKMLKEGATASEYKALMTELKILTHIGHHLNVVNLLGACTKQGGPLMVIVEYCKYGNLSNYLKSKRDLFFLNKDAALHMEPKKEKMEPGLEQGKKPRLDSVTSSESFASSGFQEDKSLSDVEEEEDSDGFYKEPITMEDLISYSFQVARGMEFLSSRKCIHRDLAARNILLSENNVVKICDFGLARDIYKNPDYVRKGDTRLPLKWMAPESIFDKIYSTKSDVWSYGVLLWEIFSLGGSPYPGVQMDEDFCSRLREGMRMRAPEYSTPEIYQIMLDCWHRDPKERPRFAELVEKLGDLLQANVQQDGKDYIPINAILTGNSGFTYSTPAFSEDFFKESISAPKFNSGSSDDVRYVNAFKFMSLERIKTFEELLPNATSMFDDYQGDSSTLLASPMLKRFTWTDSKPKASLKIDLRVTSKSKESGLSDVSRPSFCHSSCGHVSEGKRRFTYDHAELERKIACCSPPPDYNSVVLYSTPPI

Q: What does the source list for `CCn1c(N)c(-c2ncc[nH]2)c(=O)c2ccc(C#C[C@@](C)(O)COC)nc21` [EVT801]?
A: IC50 (hLMVEC; read-out: IC50, inhibition of VEGF-A-induced hLMVEC proliferation): 155 nM; IC50 (hLMVEC; read-out: IC50, inhibition of VEGF-C-induced hLMVEC proliferation): 15 nM; IC50 (hLMVEC; read-out: IC50, inhibition of VEGF-D-induced hLMVEC proliferation): 8 nM; maximum inhibition of VEGF-A-induced hLMVEC proliferation (hLMVEC; VEGF-A): 65%; maximum inhibition of VEGF-C-induced hLMVEC proliferation (hLMVEC; VEGF-C): 74%; maximum inhibition of VEGF-D-induced hLMVEC proliferation (hLMVEC; VEGF-D): 100%; T/C ratio, tumor volume (CT26 tumors; BALB/c mice, EVT801 30 mg/kg twice per day, anti-PD-1 twice per week, or both): 55%; reduction of hypoxyprobe-positive areas compared with vehicle (CT26 tumors; end of treatment, not statistically significant): 42%; CD31 IHC, tumor vessels [1]: decreased the number of vessels while increasing the proportion of larger ones; decrease of tumor weight compared with vehicle ([1]; endpoint): 82%; T/C ratio, tumor growth ([1]; oral, vs corresponding vehicle): 24%; reduction of ERK phosphorylation induced by VEGF-C and VEGF-D (ERK phosphorylation): better than pazopanib; maximum inhibition of VEGFR-1 (VEGFR-1; HEK293T cellular autophosphorylation assay): below 50%; IC50 (VEGFR-1; HEK293 cells, read-out: IC50 in cellular assays, VEGFR-1 autophosphorylation): 2130 nM; IC50 (VEGFR-2 [2]): 260 nM; IC50 (VEGFR-2 [3]): 248 nM

From article PMC10035370, “Targeting Tumor Angiogenesis with the Selective VEGFR-3 Inhibitor EVT801 in Combination with Cancer Immunotherapy” (Cancer Research Communications, 2022)
